Where no end group is shown, it is not given here. The star is where a group is joined. Myristoyl = CCCCCCCCCCCCCC(=O)*
Test system: Mut-p53
Experiment: Total activity score over combined assays (Table 8)
Set-up: scale not given here
Conditions: for Activity Score: Table 10 summary of activity of the peptides tested; for AS (Activity Score): total score of Table 7; for Conformation, activity score / PCR, activity score: Table 8; for Conformation, activity score: the 14 score columns c4-c17 stand under the heads Conformation, DNA binding, Viability, PCR; for PCR, activity score: head span not shown
Text: Several alternative and complementary methods to screen lead peptide candidates for conformational and functional effects on Mut-p53 were employed. For increased penetration of peptide across cell membranes each peptide contains 3-6 Arginine residues either as part of its sequence or added either at its N-terminus or its C-terminus. […] In-vitro based assays for evaluation were first performed, such as ELISA for assessment of p53 conformation and sequence-specific DNA binding of p53.

With pCAP168 (CRIIR) the “Activity Score” value was 0 and the “AS (Activity Score)” value was 0.

For pCAP169 (SFILI), the “Activity Score” value was 0 and the “AS (Activity Score)” value was 0.

In the case of pCAP170 (IRILM), the “Activity Score” value is reported as 27 and the “AS (Activity Score)” value is reported as 27.

In the case of pCAP171 (PHHHS), the “Activity Score” value is reported as 0 and the “AS (Activity Score)” value is reported as 0.

For pCAP172 (EFHS), the “Activity Score” value was 0 and the “AS (Activity Score)” value was 0.

With pCAP173 (RLRRL) the “Activity Score” value was 0 and the “AS (Activity Score)” value was 0.

For pCAP174 (HSTPHP), the “Activity Score” value was 54 and the “AS (Activity Score)” value was 54.

For pCAP175 (DSPR), the “Activity Score” value was 0 and the “AS (Activity Score)” value was 0.

In the case of pCAP176 (HPWTH), the “Activity Score” value is reported as 0 and the “AS (Activity Score)” value is reported as 0.

For pCAP177 (HFSHH), the “Activity Score” value was 0 and the “AS (Activity Score)” value was 0.

In the case of pCAP178 (RRVI), the “Activity Score” value is reported as 0 and the “AS (Activity Score)” value is reported as 0.

With pCAP179 (ILVI) the “Activity Score” value was 0 and the “AS (Activity Score)” value was 0.

In the case of pCAP201 (HPTHPIRLRDNLTR), the “Activity Score” value is reported as 3.

With pCAP202 (DEDAKFRIRILMRR) the “Conformation, activity score” value was 3 and the “Activity Score” value was 8.

With pCAP203 (RRRHDSCHNQLQNYDHSTE) the “PCR, activity score” value was 4 and the “Activity Score” value was 42.

pCAP204 (MSTESNMPRLIQNDDRRR) was tested, and the “PCR, activity score” value was 5 and the “Activity Score” value was 20.

In the case of pCAP205 (RCRNRKKEKTECLQKESEK), the “Activity Score” value is reported as 5.

In the case of pCAP206 (RRRSHSQENVDQDTDE), the “PCR, activity score” value is reported as 6 and the “Activity Score” value is reported as 19.

With pCAP207 (RRSRSNEDVEDKTEDE) the “Activity Score” value was 0.

With pCAP208 (RRIRSGGKDHAWTPLHENH) the “Activity Score” value was 0.

In the case of pCAP209 (HTPHPPVARTSPLQTPRR), the “Activity Score” value is reported as 0.

pCAP210 (DEFERYRRFSTSRRR) was tested, and the “PCR, activity score” value was 6, the “Conformation, activity score” value was 3 and the “Activity Score” value was 29.

pCAP211 (PDSEPPRMELRRR) was tested, and the “Activity Score” value was 0.

In the case of pCAP212 (Myristoyl-REEETILIIRRR), the “Activity Score” value is reported as 3.

pCAP213 (RRIKMIRTSESFIQHIVS) was tested, and the “Activity Score” value was 5.

In the case of pCAP214 (RRRESEQRSISLHHHST), the “Activity Score” value is reported as 2.

With pCAP215 (RRDTFDIRILMAF) the “Activity Score” value was 0.

With “pCAP216 (Myristoyl-HFNHYTFESTCRRRRC; cysteine pairing not given here)” the “Activity Score” value was 2.

With pCAP217 (HSTPHPPQPPERRR) the “Activity Score” value was 2.

For pCAP218 (RREVTELHHTHEDRR), the “Activity Score” value was 0.

For pCAP219 (SYRHYSDHWEDRRR), the “Activity Score” value was 1.

In the case of pCAP220 (STTHPHPGTSAPEPATRRR), the “Activity Score” value is reported as 6.

For pCAP221 (Myristoyl-RRKHNKHRPEPDSDER), the “PCR, activity score” value was 6, the “Conformation, activity score” value was 3 and the “Activity Score” value was 60.

pCAP222 (RYEENNGVNPPVQVFESRTR) was tested, and the “Activity Score” value was 4.

With pCAP223 (SPWTHERRCRQR) the “Activity Score” value was 0.

For pCAP224 (RRKSEPHSLSGGYQTGAD), the “Activity Score” value was 2.

pCAP225 (HTIHSISDFPEPPDRRRR) was tested, and the “Activity Score” value was 3.

pCAP226 (DDSDNRIIRYRR) was tested, and the “Activity Score” value was 6.

For pCAP227 (Myristoyl-RRKILFIRLMHNKH), the “PCR, activity score” value was 4, the “Conformation, activity score” value was 4 and the “Activity Score” value was 67.

With pCAP228 (DEDAAHSTGHPHNSQHRRRR) the “Activity Score” value was 3.

In the case of pCAP229 (Myristoyl-PRVLPSPHTIHPSQYP), the “PCR, activity score” value is reported as 4 and the “Activity Score” value is reported as 36.

For pCAP230 (RKRGKSYAFFVPPSESKERW), the “PCR, activity score” value was 6, the “Conformation, activity score” value was 3 and the “Activity Score” value was 63.

For pCAP231 (HRTQSTLILFIRRGRET), the “Activity Score” value was 9.

For pCAP232 (RSRSSHLRDHERTHT), the “Activity Score” value was 0.

In the case of pCAP233 (SHYHTPQNPPSTRRR), the “Activity Score” value is reported as 11.

For pCAP234 (HRTGHYTRCRQRCRSRSHNRH), the “Activity Score” value was 2.

In the case of pCAP235 (RSYSKLLCLLERLRISP), the “Activity Score” value is reported as 11.

With pCAP236 (RRRSTNTFLGEDFDQ) the “Activity Score” value was 0.

With pCAP237 (HTIHVHYPGNRQPNPPLILQR) the “Activity Score” value was 12.

In the case of pCAP238 (TSPHPSLPRHIYPRR), the “Activity Score” value is reported as 6.

pCAP239 (REGFYGPWHEQRRR) was tested, and the “Activity Score” value was 4.

In the case of pCAP240 (TEQHHYIPHRRR), the “Activity Score” value is reported as 3.

With pCAP241 (LIGLSTSPRPRIIR) the “Activity Score” value was 0.

For pCAP242 (Myristoyl-RRLIVRILKLPNPPER), the “PCR, activity score” value was 6, the “Conformation, activity score” value was 4 and the “Activity Score” value was 67.

With pCAP243 (RRCRSILPLLLLSR) the “Activity Score” value was 2.

With pCAP244 (RRVSELQRNKHGRKHEL) the “Activity Score” value was 5.

For pCAP245 (NHITNGGEEDSDCSSRRRRL), the “Activity Score” value was 8.

In the case of pCAP246 (RRRLDDEDVQTPTPSEYQN), the “Activity Score” value is reported as 5.

In the case of pCAP247 (RRITEIRGRTGKTTLTYIED), the “Activity Score” value is reported as 6.

In the case of pCAP248 (EIYGESGKTDEHALDTEYRR), the “Activity Score” value is reported as 0.

With pCAP249 (Myristoyl-DERTGKTRRYIDTRDIRR) the “Activity Score” value was 6.

In the case of pCAP251 (RLRRVILRSYHE), the “Activity Score” value is reported as 3.

For pCAP252 (RRVILRSYDGGHSTPHPD), the “Activity Score” value was 0.

With pCAP253 (TGKTFVKRHLTEFEKKYR) the “Activity Score” value was 0.

With pCAP254 (NHFDYDTIELDTAGEYSRRR) the “Activity Score” value was 0.

With pCAP255 (DPEPPRYLPPPPERR) the “Activity Score” value was 0.

In the case of pCAP256 (RTLHGRRVILHEGGHSISDLK), the “Activity Score” value is reported as 2.

With pCAP257 (Myristoyl-HSSHHHPTVQHRR) the “Activity Score” value was 8.

pCAP258 (FLIGPDRLIRSR) was tested, and the “PCR, activity score” value was 4 and the “Activity Score” value was 23.

For pCAP259 (Myristoyl-RTLIGIIRSHHLTLIRR), the “PCR, activity score” value was 2 and the “Activity Score” value was 25.

pCAP260 (RRTFIRHRIDSTEVIYQDED) was tested, and the “PCR, activity score” value was 6, the “Conformation, activity score” value was 4 and the “Activity Score” value was 0.

pCAP261 (RRRQPLPSAPENEE) was tested, and the “Activity Score” value was 5.

From patent US11028127B2, “Peptides capable of reactivating p53 mutants” (Yeda Research and Development Co. Ltd., priority 2013, dated 2021)
